Reference: patent US20050171203A1, “Pregabalin composition” (Pfizer Inc., priority 2003, published 2005)

Tests used:
[1] = storage at 5° C.
[2] = tested on: bacteria; yeasts and molds; E. coli; experiment: antimicrobial efficacy testing (microbial limit test, European Pharmacopoeia 5th ed.); details: glycerol as preservative
[3] = observations on preserved pregabalin compositions (Remarks of Table 1: pH, particles, color, mold); type: physicochemical; details: sorbic acid used with pregabalin
Source text: Other common preservatives, such as ethanol, are unsuitable for use in pediatric formulations.
In TABLE 1, the annotations “Meets Ph. Eur.” and “Fails Ph. Eur.” refer to whether the test results meet or fail the microbial limit test as defined in the current edition of European Pharmacopoeia (5th ed., 2004): 1000 bacteria per g (max); 100 yeasts and molds per g (max); and free of E. coli.

appearance of the solution [3] | shift in pH [3] | Structure (SMILES) | behaviour in solution under storage [1] | compliance with requirements of European Pharmacopoeia (5th ed., 2004) [2]
– | – | OCC(O)CO [glycerol] | precipitated out of solution | does not comply
discoloration of the solution | 5.0 | C/C=C/C=C/C(=O)O [sorbic acid] | – | –
– | – | O=C1NS(=O)(=O)c2ccccc21.[Na] [sodium saccharin] | remained in solution | –
– | – | OC[C@@H](O)[C@H](O)[C@@H](O)CO [xylitol] | precipitated out of solution | –
